Assay results reported in patent publication US10918742B2, “Iodine-based particles” (Nanoprobes, Inc., priority 2016, dated 2021).

How the values were obtained:
[1] = mice, acute dose; cited from earlier work
[2] = microCT comparison with commercially available agent (kidney, lung); type: in vivo, mouse
Experimental: A mouse was injected with a standard iodine contrast agent at an effective dose of 2.5 g iodine/kg.
A mouse was injected with a standard iodine contrast agent at an effective dose of 1.75 g iodine/kg.

## CC(=O)N(CC(O)CO)c1c(I)c(C(=O)NCC(O)CO)c(I)c(C(=O)NCC(O)CO)c1I (stereo not drawn) [Iohexol, 5-(N-2,3-Dihydroxypropylacetamido)-2,4,6-triiodo-N,N′-bis(2,3-dihydroxypropyl)isophthalamide]
[1]
  intravenous LD50: 24.2 g iodine/kg
[2]; 30 minutes after injection, 1.75 g iodine/kg
  microCT of lung region: no clear visualization of any vasculature
[2]; two minutes after injection, Example 1 at 1.75 g iodine/kg, standard agent at 2.5 g iodine/kg
  microCT of kidney region: the iodine has rapidly entered the kidneys and is being quickly removed from the blood
